In PubChem BioAssay AID2060604 (Molecular Pharmacology Branch, DTP, NCI, 2025):

Tested on: 379773-124-R-J2-PDC complex spheroids, viability % test/control
Assay: Anticancer human tumor 379773-124-R-J2-PDC patient-derived endometrial carcinoma cell line growth inhibition [CLK]
Settings: for IC50: curve of first compound; for viability, T/C: stronger effect = lower value
Excerpt: A high-throughput screen of multi-cell type tumor spheroids was designed to identify active combinations of […] and targeted small molecules. Complex spheroids include a stromal component modeled by human endothelial cells (HUVEC) and fibroblasts modeled by human mesenchymal stem cells (MSCs). The concentration ranges selected for each drug and investigational agent were based upon clinically achievable concentrations if the clinical Cmax of the agent was known.
Compounds. The drugs and investigational agents: cirtuvivint (SM08502; NSC835563), CC-671 (NSC850746), vemurafenib (NSC761431), tapotoclax (NSC804041), sotorasib (NSC818433), adagrasib (NSC831453), MRTX-1133 (NSC836407), BAY2416964 (NSC825713), copanlisib (NSC816437), inavolisib (NSC800729), abemaciclib (NSC768073), osimertinib (NSC779217), entinostat (NSC756642), eltanexor (KPT-8602, NSC794443), venetoclax (NSC766270), ceralasertib (NSC777638), bortezomib (NSC756655), olaparib (NSC753686), talazoparib (NSC767125), alisertib (NSC759677), peposertib (NSC802822), gemcitabine (NSC613327), 5-fluorouracil (NSC19893), SN-38 (NSC673596), oxaliplatin (NSC266046), paclitaxel (NSC125973), and doxorubicin (NSC123127), were obtained from the National Cancer Institute (NCI) Developmental Therapeutics Program Chemical Repository. The FDA-approved anticancer drug set is available from the Developmental Therapeutics Program at https://dtp.cancer.gov/organization/dscb/obtaining/available plates.htm. […] The stock solutions were prepared in dimethyl sulfoxide (DMSO, Sigma-Aldrich, St. Louis, MO, cat. D2650), except for the platinum complexes which were prepared in saline (Quality Biological, Gaithersburg, MD, cat. 114-055-101), at 800-fold the tested concentration and stored at -70 degrees C prior to their use. All drugs and investigational agents were tested over a range starting from a high concentration at or near the clinical Cmax and decreasing in half-log increments. If the clinical Cmax for an agent had not been determined, the highest concentration tested was 10 microM.
Cell Culture. All cells were maintained in an incubator at 37 degrees C and 5% CO2 with 95% humidity. The PDC lines were cultured according to standard operating procedures established by the NCI PDMR. Briefly, all PDCs were thawed and cultured in Matrigel-coated flasks prepared with a working solution of 1X Ham's F-12 nutrient mix, without supplementation (Invitrogen, Waltham, MA, cat. 11765054), 100 U/mL penicillin-streptomycin (Invitrogen, cat. 15140122), and 2.5% Matrigel (Corning Inc., Corning, NY, cat. 354248) for the first three passages. The 947758-054-R-J2-PDC line was cultured in 6B/Colon 1A media, which includes advanced DMEM/F-12 (Thermo Fisher Scientific, cat. 12634028), 10 mM HEPES (Thermo Fisher Scientific, cat. 15630080), 1X GlutaMAX supplement (Thermo Fisher Scientific, cat. 35050061), 0.1 mg/mL primocin (InvivoGen, cat. ant-pm-2), 10% defined fetal bovine serum, heat inactivated (HyClone Laboratories Inc., cat. SH30070.03HI), 1.25 mM N-Acetyl-L-cysteine (Sigma-Aldrich, cat. A9165), 10 mM nicotinamide (Sigma-Aldrich, cat. N0636), 1X B-27 supplement (Thermo Fisher Scientific, cat. 17504044), 1X N-2 supplement (Thermo Fisher Scientific, cat. 17502048), and 10 microM Y-27632 dihydrochloride (Tocris Bioscience, cat. 1254). The 876862-298-R-J1-PDC was cultured in 6E media, which includes all 6B/Colon 1A media components plus 50% L-WRN conditioned media (ATCC, cat. CRL-3276), 50 ng/mL recombinant human EGF recombinant protein (hEGF; Thermo Fisher Scientific, cat. PHG0311), 10 ng/mL recombinant human fibroblast growth factor 10 (hGFG-10; PeproTech, cat. 100-26), 1 ng/mL recombinant human fibroblast growth factor 2 (hFGF-2; PeproTech, cat. 100-18B), and 1 µM prostaglandin E2 (PGE2; Tocris, cat. 2296). The 227483-062-R1-J1-PDC line was cultured in Panc media, containing all 6E components except hFGF-2, with the addition of 500 nM SB-431542 (Selleckchem, cat. S1067) and 10 nM gastrin (Tocris, cat. 3006). […]
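Also: compound exposure lasted seven days before the viability readout.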
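For viability, T/C in this document: 100% = DMSO vehicle control wells.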

What does the source list for `C#Cc1c(F)ccc2cc(O)cc(-c3ncc4c(N5CC6CCC(C5)N6)nc(OCC56CCCN5CC(F)C6)nc4c3F)c12` (configuration not stated) + CN1CCN(c2cc(C(=O)Nc3cc4cc(-c5cnn(C)c5)ccc4cn3)ccn2)CC1?
IC50 (second compound 0.0316 µM): > 10000 nM; IC50 (second compound 0.1 µM): > 10000 nM; IC50 (second compound 0.316 µM): < 31.6 nM; IC50 (second compound 1 µM): < 31.6 nM; IC50 (second compound 3.16 µM): < 31.6 nM; IC50 (second compound 10 µM): < 31.6 nM; viability, T/C (second compound 0.0316 µM, first compound 0.0316 µM): 88.4%; viability, T/C (second compound 0.0316 µM, first compound 0.1 µM): 91.4%; viability, T/C (second compound 0.0316 µM, first compound 0.316 µM): 93%; viability, T/C (second compound 0.0316 µM, first compound 1 µM): 87.5%; viability, T/C (second compound 0.0316 µM, first compound 3.16 µM): 103%; viability, T/C (second compound 0.0316 µM, first compound 10 µM): 99.3%; viability, T/C (second compound 0.1 µM, first compound 0.0316 µM): 89.7%; viability, T/C (second compound 0.1 µM, first compound 0.1 µM): 84.5%; viability, T/C (second compound 0.1 µM, first compound 0.316 µM): 75.7%; viability, T/C (second compound 0.1 µM, first compound 1 µM): 77%; viability, T/C (second compound 0.1 µM, first compound 3.16 µM): 99.1%; viability, T/C (second compound 0.1 µM, first compound 10 µM): 72.8%; viability, T/C (second compound 0.316 µM, first compound 0.0316 µM): 35.7%; viability, T/C (second compound 0.316 µM, first compound 0.1 µM): 27.4%; viability, T/C (second compound 0.316 µM, first compound 0.316 µM): 35.1%; viability, T/C (second compound 0.316 µM, first compound 1 µM): 33.3%; viability, T/C (second compound 0.316 µM, first compound 3.16 µM): 32.5%; viability, T/C (second compound 0.316 µM, first compound 10 µM): 28.4%; viability, T/C (second compound 1 µM, first compound 0.0316 µM): 0.19%; viability, T/C (second compound 1 µM, first compound 0.1 µM): 0.22%; viability, T/C (second compound 1 µM, first compound 0.316 µM): 0.24%; viability, T/C (second compound 1 µM, first compound 1 µM): 1.34%; viability, T/C (second compound 1 µM, first compound 3.16 µM): 0.78%; viability, T/C (second compound 1 µM, first compound 10 µM): 0.14%; viability, T/C (second compound 3.16 µM, first compound 0.0316 µM): 0.14%; viability, T/C (second compound 3.16 µM, first compound 0.1 µM): 2.72%; viability, T/C (second compound 3.16 µM, first compound 0.316 µM): 0.76%; viability, T/C (second compound 3.16 µM, first compound 1 µM): 2.34%; viability, T/C (second compound 3.16 µM, first compound 3.16 µM): 1.68%; viability, T/C (second compound 3.16 µM, first compound 10 µM): 1.37%; viability, T/C (second compound 10 µM, first compound 0.0316 µM): 2.32%; viability, T/C (second compound 10 µM, first compound 0.1 µM): 0.23%; viability, T/C (second compound 10 µM, first compound 0.316 µM): 0.32%; viability, T/C (second compound 10 µM, first compound 1 µM): 3.73%; viability, T/C (second compound 10 µM, first compound 3.16 µM): 1.56%; viability, T/C (second compound 10 µM, first compound 10 µM): 0.31%
